This passage reports E30 results from US8546427B2, “Tetrahydroquinoline derivatives” (Hoffmann-La Roche Inc., priority 2010, dated 2013).

The test system of this assay is AMP-activated protein kinase (AMPK). The assay is described as follows: ADP Quest assay for AMPK activators. Set-up: key: fold AMPK activation at 30 μM activator vs none. The note with it: fold of AMPK activation to phosphorylate SAMS peptide without and with an activator at the concentration of 30 μM. It is filed as biochemical. How it is done:
This method evaluates AMP-activated protein kinase (AMPK) activity through detecting the accumulation of ADP product using an ADP Quest kit and determining the E30 values of the small molecular AMPK activators. ADP Quest kit (DiscoveRx, Fremont, Calif.) is stored at −20° C. before use. Before an experiment, thaw the kit (include assay buffer, ADP standard solution, reagent A and reagent B) and equilibrate to room temperature. Dispense the ADP Quest reagents into single-use aliquots and store at −20° C. The compound concentrations typically range from 0 μM to 100 μM by 2-fold dilution. AMP concentrations range from 0.98 μM to 1 mM as the reference control. In an assay, thaw and equilibrate the assay buffer, reagent A and reagent B to room temperature for 30 minutes prior to use. Mix ATP, SAMS peptide substrate and compound, and place them into the 384-well assay plate. Add reagent A and B based on the assay kit protocol. Incubate the assay plate at room temperature for 30 minutes after addition the mixture followed by the addition of AMPK protein (Invitrogen, CA) to initiate the AMPK phosphorylation reaction. At the same time, reactions with AMPK activator AMP in the absence of enzyme is included as blank control. The reaction fluorescence signal is monitored and recorded on Envision in kinetic mode with the excitation wavelength of 530 nm and emission wavelength of 590 nm. The E30 value, defined as the fold of AMPK activation to phosphorylate SAMS peptide without and with an activator at the concentration of 30 μM, is calculated and analyzed using Prism 5.0.
In turn, `CC1(C)CC(c2ccccc2NS(=O)(=O)c2cccc(F)c2)Nc2ccc(C(F)(F)F)cc21` (stereo not drawn) [Example-43, N-[2-(4,4-Dimethyl-6-trifluoromethyl-1,2,3,4-tetrahydro-quinolin-2-yl)-phenyl]-3-fluoro-benzenesulfonamide] came in with an E30 of 1.14.
In the case of `CC1(C)CC(c2ccccc2NS(=O)(=O)c2ccccc2F)Nc2ccc(C(F)(F)F)cc21` (stereo not drawn) [Example-44, N-[2-(4,4-Dimethyl-6-trifluoromethyl-1,2,3,4-tetrahydro-quinolin-2-yl)-phenyl]-2-fluoro-benzenesulfonamide], the E30 turned out to be 1.15.
In turn, `CC1(C)CC(c2ccccc2NS(=O)(=O)c2ccc(F)cc2)Nc2ccc(C(F)(F)F)cc21` (stereo not drawn) [Example-45, N-[2-(4,4-Dimethyl-6-trifluoromethyl-1,2,3,4-tetrahydro-quinolin-2-yl)-phenyl]-4-fluoro-benzenesulfonamide] gave an E30 of 1.15.
On to `CCS(=O)(=O)Nc1ccccc1C1CC(C)(C)c2cc(C(F)(F)F)ccc2N1` (stereo not drawn) [Example-46, Ethanesulfonic acid [2-(4,4-dimethyl-6-trifluoromethyl-1,2,3,4-tetrahydro-quinolin-2-yl)-phenyl]-amide], for which the E30 is listed as 1.20.
Consider `CC(C)S(=O)(=O)Nc1ccccc1C1CC(C)(C)c2cc(C#N)ccc2N1` (stereo not drawn) [Example-50, Propane-2-sulfonic acid [2-(6-cyano-4,4-dimethyl-1,2,3,4-tetrahydro-quinolin-2-yl)-phenyl]-amide], for which the E30 was 1.19.
Molecule `CC1(C)CC(c2cccc(NS(=O)(=O)c3ccc(F)cc3)c2)Nc2ccc(C(F)(F)F)cc21` (stereo not drawn) [Example-58, N-[3-(4,4-Dimethyl-6-trifluoromethyl-1,2,3,4-tetrahydro-quinolin-2-yl)-phenyl]-4-fluoro-benzenesulfonamide] showed an E30 of 1.34.
